One block for each compound: values may come before it.
How the values were obtained:
PPARγ [1] = molecular target: T1, PPARγ (Homo sapiens, UniProt P37231); assay: PPARγ-dependent transactivation assay in HEK293T cells; format: cell-based; set-up: the vector pFA-PPARγ-LBD-GAL4-DBD encoding the hybrid protein PPARγ-LBD-GAL4-DBD; expressed in transfected cells; host or cells: HEK293T cells; (transient transfection); settings: for antagonistic effects on the time-course of the response to agonist stimulation: 10 μM compound, 1 μM rosiglitazone; for inhibition of the rosiglitazone-induced transactivation of PPARγ: 1 or 10 μM compound with 0.1-10 μM rosiglitazone
T1 sequence (P37231 238-503 limits assumed): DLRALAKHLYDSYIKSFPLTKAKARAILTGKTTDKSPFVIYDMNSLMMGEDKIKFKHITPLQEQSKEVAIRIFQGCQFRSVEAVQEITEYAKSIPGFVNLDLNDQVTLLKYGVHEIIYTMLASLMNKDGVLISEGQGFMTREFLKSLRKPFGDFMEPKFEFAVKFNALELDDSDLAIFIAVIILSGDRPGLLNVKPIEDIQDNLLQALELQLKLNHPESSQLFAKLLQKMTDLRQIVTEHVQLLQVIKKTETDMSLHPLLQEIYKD
Experimental: For the PPARγ-dependent transactivation assay, 1×10^4 HEK293T cells per well were seeded in 96-well plates and cultured overnight as described above to allow attachment of the HEK293T cells. The next day, the HEK293T cells were transiently transfected using the JetPRIME™ transfection reagent (PEQLAB Biotechnologie GmbH, Erlangen, Germany), as described by the manufacturer, with 0.01 μg per well pFA-PPARγ-LBD-GAL4-DBD, kindly provided by Prof. Dr. Manfred Schubert-Zsilavecz (Institute of Pharmaceutical Chemistry, Department of Biochemistry, Chemistry and Pharmacy, Goethe-University Frankfurt am Main, Germany), 0.09 μg per well pFR-Luc (Stratagene, La Jolla, USA) and 0.0005 μg per well pRL-CMV (Promega GmbH, Mannheim, Germany). After 4 h, the transfection medium was replaced and the HEK293T cells were cultured in fresh growth medium for another 24 h. For the transient transfection of 1×10^6 HuT-78 cells and Jurkat T cells per well, the SuperFect™ transfection reagent (QIAGEN GmbH, Hilden, Germany) was used as described by the producer with 0.2 μg per well pFA-PPARγ-LBD-GAL4-DBD, 0.8 μg per well pFR-Luc and 0.05 μg per well pRL-CMV. After 24 h, 1 ml fresh growth medium was added and the cells were cultured for another 48 h. The PPARγ-dependent transactivation assay in HEK293T cells using a 96-well plate format was performed in quadruple and in HuT-78 cells and Jurkat T cells using a 12-well plate format in triplicate.
(§1) The PPARγ-dependent transactivation assay is based on the vector pFA-PPARγ-LBD-GAL4-DBD encoding the hybrid protein PPARγ-LBD-GAL4-DBD and the reporter vector pFR-Luc, carrying a GAL4-responsive element in front of the Firefly luciferase gene. These two vectors were co-transfected, as described above, in combination with the control vector pRL-CMV, encoding Renilla luciferase, to normalize Firefly luciferase activity for transfection efficiency. […] Transactivation was analysed using a 96-well plate format in a Mithras LB940 multimode reader (Berthold Technologies, Bad Wildbad, Germany). The IC50 value for MTTB was determined by fitting the data to a sigmoidal dose-response curve using the GraphPad Software Prism (La Jolla, USA).
Firefly luciferase luminescence values and control Renilla luciferase luminescence values were determined in each sample. The ratios of Firefly to Renilla luciferase luminescence were used to normalize luciferase activity values.

HEK293T cells [2] = assay: Intracellular accumulation by LC-MS/MS, HEK293T cells; format: in vitro ADME, human
Description: (§2) Accumulation was expressed as a percentage of the ratio of intracellular to extracellular concentration (I/E).

HuT-78 cells [3] = assay: Cell viability, MTT assay, HuT-78 cells; format: cell-based, human
Experimental: (§3) HuT-78 cells, Jurkat T cells and HEK293T cells, were seeded in 96-well plates at a density of 5×10^4 cells per well and cultured overnight as described above to allow attachment of the HEK293T cells. […] As control, DMSO alone was used. After 24 h stimulation, 3-(4, 5-dimethylthiazol-2-yl)-2, 5-diphenyltetrazolium bromide (MTT) solution (5 mg ml-1 in phosphate buffered saline (PBS)) was added and the cells were incubated for two more hours at 37° C. (Mosmann, 1983). Afterwards, the cells were lysed with MTT lysis buffer. Following cell lysis, cell viability was measured at an absorbance of 560 nm in a Mithras LB940 multimode reader. The cell viability studies using a 96-well plate format were performed in octet.

HuT-78 cells [4] = assay: Intracellular accumulation by LC-MS/MS, HuT-78 cells; format: in vitro ADME, human
Description: as §2

Jurkat T cells [5] = assay: Cell viability, MTT assay, Jurkat T cells; format: cell-based
Experimental: as §3

PPARγ [6] = molecular target: T1, PPARγ; assay: PPARγ-dependent transactivation assay in Jurkat T cells; format: cell-based; set-up: the vector pFA-PPARγ-LBD-GAL4-DBD encoding the hybrid protein PPARγ-LBD-GAL4-DBD; expressed in transfected cells; host or cells: HEK293T cells; Jurkat T cells (transient transfection); settings: for inhibition of the rosiglitazone-induced transactivation of PPARγ / agonistic effects (transactivation of PPARγ by the compound alone): 24 h; for inhibition of the rosiglitazone-induced transactivation of PPARγ: 1 or 10 μM compound with 0.1-10 μM rosiglitazone
Experimental: as §1, with “Dr. […] Schubert-Zsilavecz (Institute of Pharmaceutical Chemistry, Department of Biochemistry, Chemistry and Pharmacy, Goethe-University Frankfurt am Main, Germany), 0.09 μg per well pFR-Luc (Stratagene, La Jolla, USA) and 0.0005 μg per well pRL-CMV (Promega GmbH, Mannheim, Germany). After 4 h, the transfection medium was replaced and the HEK293T cells were cultured in fresh growth medium for another 24 h. […] After 24 h, 1 ml fresh growth medium was added and the cells were cultured for another 48 h. The PPARγ-dependent transactivation assay in HEK293T cells using a 96-well plate format was performed in quadruple and in HuT-78 cells and Jurkat T cells using a 12-well plate format in triplicate. The PPARγ-dependent” for “The PPARγ-dependent”

Jurkat T cells [7] = assay: Intracellular accumulation by LC-MS/MS, Jurkat T cells; format: in vitro ADME
Description: as §2

HEK293T cells [8] = assay: Cell viability, MTT assay, HEK293T cells; format: cell-based, human; settings: 24 h
Experimental: as §3

[9] = HEK293T cells, 24 h, compound alone

antagonistic effects on the time-course of the response to agonist stimulation (PPARγ [1]; HEK293T cells): non-existent antagonistic effects | agonistic effects (transactivation of PPARγ by the compound alone) (PPARγ [1]; [9]): no agonistic effects
Structure (SMILES): CC(C)C[C@H](NC(=O)OCC1c2ccccc2-c2ccccc21)C(=O)O [FMOC-L-leucine, N-(9-fluorenylmethoxycarbonyl)-L-leucine]

inhibition of the rosiglitazone-induced transactivation of PPARγ (PPARγ [1]; HEK293T cells, 24 h): full antagonism | agonistic effects (transactivation of PPARγ by the compound alone) (PPARγ [1]; [9]): surprisingly high agonistic effects | intracellular accumulation, fold lower compared to MTTB (HEK293T cells [2]; 10 μM): 10 fold | intracellular accumulation, fold less than that of MTTB (HuT-78 cells [4]; 10 μM): about 100 fold | inhibition of the rosiglitazone-induced transactivation of PPARγ (PPARγ [6]): full antagonism | agonistic effects (transactivation of PPARγ by the compound alone) (PPARγ [6]; compound alone): surprisingly high agonistic effects | PPARγ transactivation by the compound alone (PPARγ [6]; compound alone, dose-independent): approximately 3 fold | intracellular accumulation, fold less than that of MTTB (Jurkat T cells [7]; 10 μM): about 100 fold
Structure (SMILES): O=C(Nc1ccccc1)c1cc([N+](=O)[O-])ccc1Cl [GW9662, 2-chloro-5-nitrobenzanilide]
antagonistic effects on the time-course of the response to agonist stimulation (PPARγ [1]; HEK293T cells): inhibited the time-course of the response to agonist | concentrations at which clearly cytotoxic (HuT-78 cells [3]; MTT, 24 h): above 20 μM | concentrations at which clearly cytotoxic (Jurkat T cells [5]; MTT, 24 h): > 30 µM | concentrations without cytotoxic effects / loss of viability (HEK293T cells [8]): ≤ 30 µM

antagonistic effects on the time-course of the response to agonist stimulation (PPARγ [1]; HEK293T cells): non-existent antagonistic effects | concentrations that transactivated PPARγ (PPARγ [1]; [9]): above 1 μM
Structure (SMILES): O=C1NC(=O)C(Cc2ccc3cc(OCc4ccccc4F)ccc3c2)S1 (centres unmarked) [MCC-555, netoglitazone]

IC50 (PPARγ [1]): 4.3 µM | inhibition of the rosiglitazone-induced transactivation of PPARγ (PPARγ [1]; HEK293T cells, 24 h): dose-dependent inhibition | agonistic effects (transactivation of PPARγ by the compound alone) (PPARγ [1]; [9]): no agonistic effect | uptake, fold higher than of GW9662 (HEK293T cells [2]): 10 fold | intracellular accumulation (intracellular as percentage of extracellular concentration) (HEK293T cells [2]; 10 μM, after 24 h): approximately 25% | intracellular accumulation, fold higher as compared to GW9662 (HuT-78 cells [4]): approximately 100 fold | intracellular accumulation (intracellular as percentage of extracellular concentration) (HuT-78 cells [4]; 10 μM, after 24 h): approximately 10% | inhibition of the rosiglitazone-induced transactivation of PPARγ (PPARγ [6]): dose-dependent inhibition | agonistic effects (transactivation of PPARγ by the compound alone) (PPARγ [6]; compound alone): no agonistic effect | intracellular accumulation, fold higher as compared to GW9662 (Jurkat T cells [7]): approximately 100 fold | intracellular accumulation (intracellular as percentage of extracellular concentration) (Jurkat T cells [7]; 10 μM, after 24 h): approximately 10%
Structure (SMILES): CCCC/C(=C\c1cc(OCc2ccc3nc(C(F)(F)F)cc(OC)c3c2)ccc1OCc1ccc(C(F)(F)F)cc1)C(=O)O [MTTB, (E)-2-(5-((4-methoxy-2-(trifluoromethyl)quinolin-6-yl)methoxy)-2-((4-(trifluoromethyl)benzyl)oxy)-benzylidene) hexanoic acid]
cytotoxicity in contrast to GW9662 (HuT-78 cells [3]): less cytotoxicity | concentrations without cytotoxic effects (HuT-78 cells [3]; MTT, 24 h): up to 10 μM | cytotoxicity in contrast to GW9662 (Jurkat T cells [5]): less cytotoxicity | concentrations without cytotoxic effects (Jurkat T cells [5]; MTT, 24 h): up to 10 μM | concentrations without cytotoxic effects / loss of viability (HEK293T cells [8]): up to 10 μM

From patent US10093628B2, “Competitive PPAR-gamma antagonists” (FRAUNHOFER-GESELLSCHAFT ZUR FÖRDERUNG DER ANGEWANDTEN …, priority 2014, dated 2018)
